This passage reports surface tension liquid-gas results from the NIST ThermoML archive (doi:10.1021/je400004j).

± gives the expanded uncertainty stated by the source.

The nature of this data set: xn = mol fraction of the nth substance listed. The note with it: 298.15 K, Ring tensiometer.

Usually surface tension liquid-gas stands for the work needed to enlarge the surface of a liquid by unit area.

Regarding `CCCCOP(=O)([O-])OCCCC.CCCCn1cc[n+](C)c1` [1-butyl-3-methylimidazolium dibutyl phosphate] + CCO, the surface tension liquid-gas (x1 = 0.1) came out at 22.5 ± 0.3 mN/m; the surface tension liquid-gas (x1 = 0.2) came out at 23.5 ± 0.4 mN/m; the surface tension liquid-gas (x1 = 0.3) worked out at 24.5 ± 0.4 mN/m; the surface tension liquid-gas (x1 = 0.4) was found to be 25.9 ± 0.4 mN/m; the surface tension liquid-gas (x1 = 0.5) is on record as 26.6 ± 0.4 mN/m; the surface tension liquid-gas (x1 = 0.6) is listed as 27.3 ± 0.4 mN/m. The surface tension liquid-gas (x1 = 0.7) is listed as 27.8 ± 0.4 mN/m, the surface tension liquid-gas (x1 = 0.8) was determined as 28.3 ± 0.4 mN/m, the surface tension liquid-gas (x1 = 0.9) was determined as 28.8 ± 0.4 mN/m and the surface tension liquid-gas (x1 = 1) was 29.4 ± 0.4 mN/m.

On to `CCCCOP(=O)([O-])OCCCC.CCCCn1cc[n+](C)c1` [1-butyl-3-methylimidazolium dibutyl phosphate] + CO, for which the surface tension liquid-gas reads like this: (x1 = 0.1) 26.4 ± 0.4 mN/m; (x1 = 0.2) 27.5 ± 0.4 mN/m; (x1 = 0.3) 28.1 ± 0.4 mN/m; (x1 = 0.4) 28.5 ± 0.4 mN/m; (x1 = 0.5) 28.8 ± 0.4 mN/m; (x1 = 0.6) 28.9 ± 0.4 mN/m. The surface tension liquid-gas turned out to be 29.1 ± 0.4 mN/m (x1 = 0.7), 29.4 ± 0.4 mN/m (x1 = 0.8), 29.5 ± 0.4 mN/m (x1 = 0.9) and 29.4 ± 0.4 mN/m (x1 = 1).

In the case of `CCCCOP(=O)([O-])OCCCC.CCCCn1cc[n+](C)c1` [1-butyl-3-methylimidazolium dibutyl phosphate] + O, the surface tension liquid-gas runs as follows: (x1 = 0.1) 28.2 ± 0.6 mN/m; (x1 = 0.2) 28.9 ± 0.4 mN/m; (x1 = 0.3) 29 ± 0.4 mN/m; (x1 = 0.4) 29.1 ± 0.4 mN/m; (x1 = 0.5) 29.2 ± 0.4 mN/m; (x1 = 0.6) 29.3 ± 0.4 mN/m. Also, the surface tension liquid-gas by setting is: (x1 = 0.7) 29.3 ± 0.4 mN/m; (x1 = 0.8) 29.4 ± 0.4 mN/m; (x1 = 0.9) 29.5 ± 0.4 mN/m; (x1 = 1) 29.4 ± 0.4 mN/m.

For `CCOP(=O)([O-])OCC.CCn1cc[n+](C)c1` [1-ethyl-3-methylimidazolium diethyl phosphate] + CCO, the surface tension liquid-gas runs as follows: (x1 = 0.1) 22.6 ± 0.3 mN/m; (x1 = 0.2) 23.6 ± 0.4 mN/m; (x1 = 0.3) 25 ± 0.4 mN/m; (x1 = 0.4) 26.6 ± 0.4 mN/m; (x1 = 0.5) 28.2 ± 0.4 mN/m; (x1 = 0.6) 30.1 ± 0.4 mN/m. The surface tension liquid-gas (x1 = 0.7) is 31.6 ± 0.5 mN/m, the surface tension liquid-gas (x1 = 0.8) is reported as 33.2 ± 0.5 mN/m, the surface tension liquid-gas (x1 = 0.9) amounted to 34.8 ± 0.5 mN/m and the surface tension liquid-gas (x1 = 1) was 37.1 ± 0.5 mN/m.

For `CCOP(=O)([O-])OCC.CCn1cc[n+](C)c1` [1-ethyl-3-methylimidazolium diethyl phosphate] + CO, the surface tension liquid-gas came to 26.4 ± 0.4 mN/m (x1 = 0.1); 28.9 ± 0.4 mN/m (x1 = 0.2); 30.4 ± 0.4 mN/m (x1 = 0.3); 31.9 ± 0.5 mN/m (x1 = 0.4); 33.5 ± 0.5 mN/m (x1 = 0.5); 34.7 ± 0.5 mN/m (x1 = 0.6). The surface tension liquid-gas came to 35.3 ± 0.5 mN/m (x1 = 0.7), 37.2 ± 0.5 mN/m (x1 = 0.8), 37.3 ± 0.5 mN/m (x1 = 0.9) and 37.1 ± 0.5 mN/m (x1 = 1).

Consider `CCOP(=O)([O-])OCC.CCn1cc[n+](C)c1` [1-ethyl-3-methylimidazolium diethyl phosphate] + O, for which the surface tension liquid-gas is reported as 49.7 ± 1.4 mN/m (x1 = 0.02); 46.5 ± 0.6 mN/m (x1 = 0.04); 44.2 ± 0.6 mN/m (x1 = 0.08); 42.6 ± 0.6 mN/m (x1 = 0.1); 41.4 ± 0.6 mN/m (x1 = 0.12); 40.7 ± 0.6 mN/m (x1 = 0.14). Further, the surface tension liquid-gas (x1 = 0.2) was 38.9 ± 0.5 mN/m; the surface tension liquid-gas (x1 = 0.3) is 38 ± 0.5 mN/m; the surface tension liquid-gas (x1 = 0.4) is given as 37.8 ± 0.5 mN/m; the surface tension liquid-gas (x1 = 0.5) is recorded as 37.5 ± 0.5 mN/m; the surface tension liquid-gas (x1 = 0.6) is reported as 37.4 ± 0.5 mN/m; the surface tension liquid-gas (x1 = 0.7) is given as 37.3 ± 0.5 mN/m. Moreover, the surface tension liquid-gas (x1 = 0.8) came to 37.2 ± 0.5 mN/m, the surface tension liquid-gas (x1 = 0.9) came to 37.3 ± 0.5 mN/m and the surface tension liquid-gas (x1 = 1) is 37.1 ± 0.5 mN/m.

Turning to `CCn1cc[n+](C)c1.COP(=O)([O-])OC` [1-ethyl-3-methylimidazolium dimethylphosphate] + CCO, the surface tension liquid-gas came out at 22.9 ± 0.4 mN/m (x1 = 0.1); 24 ± 0.4 mN/m (x1 = 0.2); 25.5 ± 0.4 mN/m (x1 = 0.3); 27.5 ± 0.4 mN/m (x1 = 0.4); 29.5 ± 0.4 mN/m (x1 = 0.5); 31.7 ± 0.5 mN/m (x1 = 0.6). For the same compound, the surface tension liquid-gas runs as follows: (x1 = 0.7) 34 ± 0.5 mN/m; (x1 = 0.8) 36.5 ± 0.5 mN/m; (x1 = 0.9) 39.3 ± 0.6 mN/m; (x1 = 1) 44.3 ± 0.6 mN/m.

With `CCn1cc[n+](C)c1.COP(=O)([O-])OC` [1-ethyl-3-methylimidazolium dimethylphosphate] + CO, the surface tension liquid-gas stood at 26.7 ± 0.4 mN/m (x1 = 0.1); 29.5 ± 0.4 mN/m (x1 = 0.2); 31.8 ± 0.5 mN/m (x1 = 0.3); 33.7 ± 0.5 mN/m (x1 = 0.4); 35.6 ± 0.5 mN/m (x1 = 0.5); 37 ± 0.5 mN/m (x1 = 0.6). Moreover, the surface tension liquid-gas (x1 = 0.7) was 38.9 ± 0.6 mN/m, the surface tension liquid-gas (x1 = 0.8) is 40.6 ± 0.6 mN/m, the surface tension liquid-gas (x1 = 0.9) is 42.4 ± 0.6 mN/m and the surface tension liquid-gas (x1 = 1) was 44.3 ± 0.6 mN/m.

`CCn1cc[n+](C)c1.COP(=O)([O-])OC` [1-ethyl-3-methylimidazolium dimethylphosphate] + O: the surface tension liquid-gas is on record as 48.9 ± 0.69 mN/m (x1 = 0.1); 47 ± 0.63 mN/m (x1 = 0.2); 46.4 ± 0.62 mN/m (x1 = 0.3); 46.2 ± 0.62 mN/m (x1 = 0.4); 45.1 ± 0.61 mN/m (x1 = 0.5); 44.2 ± 0.6 mN/m (x1 = 0.6). Besides, the surface tension liquid-gas was 44.1 ± 0.61 mN/m (x1 = 0.7), 44.5 ± 0.62 mN/m (x1 = 0.8), 44.4 ± 0.62 mN/m (x1 = 0.9) and 44.3 ± 0.62 mN/m (x1 = 1).

In the case of `CCO` [ethanol] + CCCCOP(=O)([O-])OCCCC.CCCCn1cc[n+](C)c1, the surface tension liquid-gas (x2 = 0) is reported as 21.9 ± 0.3 mN/m.

For `CCO` [ethanol] + CCCCn1cc[n+](C)c1.COP(=O)([O-])OC, the surface tension liquid-gas (x2 = 0) turned out to be 21.9 ± 0.3 mN/m.

On to `CCO` [ethanol] + CCCCn1cc[n+](CC)c1.CCOP(=O)([O-])OCC, for which the surface tension liquid-gas (x2 = 0) amounted to 21.9 ± 0.3 mN/m.

Take `CCO` [ethanol] + CCOP(=O)([O-])OCC.CCn1cc[n+](C)c1: under “x2 = 0”, the surface tension liquid-gas is 21.9 ± 0.3 mN/m.

Consider `CCO` [ethanol] + CCOP(=O)([O-])OCC.CCn1cc[n+](CC)c1, for which, where the note is “x2 = 0”, the surface tension liquid-gas was 21.9 ± 0.3 mN/m.

Take `CCO` [ethanol] + CCn1cc[n+](C)c1.COP(=O)([O-])OC: for the setting “x2 = 0”, the surface tension liquid-gas worked out at 21.9 ± 0.3 mN/m.

Take `CCO` [ethanol] + COP(=O)([O-])OC.Cn1cc[n+](C)c1: the surface tension liquid-gas (x2 = 0) is on record as 21.9 ± 0.3 mN/m.

Regarding `CO` [methanol] + CCCCOP(=O)([O-])OCCCC.CCCCn1cc[n+](C)c1, the surface tension liquid-gas (x2 = 0) is reported as 22.4 ± 0.3 mN/m.

For the compound `CO` [methanol] + CCCCn1cc[n+](C)c1.COP(=O)([O-])OC, where the note is “x2 = 0”, the surface tension liquid-gas is listed as 22.4 ± 0.3 mN/m.

Regarding `CO` [methanol] + CCCCn1cc[n+](CC)c1.CCOP(=O)([O-])OCC, the surface tension liquid-gas (x2 = 0) stood at 22.4 ± 0.3 mN/m.

Take `CO` [methanol] + CCOP(=O)([O-])OCC.CCn1cc[n+](C)c1: the surface tension liquid-gas (x2 = 0) is 22.4 ± 0.3 mN/m.

Consider `CO` [methanol] + CCOP(=O)([O-])OCC.CCn1cc[n+](CC)c1, for which, where the note is “x2 = 0”, the surface tension liquid-gas was found to be 22.4 ± 0.3 mN/m.

On to `CO` [methanol] + CCn1cc[n+](C)c1.COP(=O)([O-])OC, for which the surface tension liquid-gas (x2 = 0) was found to be 22.4 ± 0.3 mN/m.

For `CO` [methanol] + COP(=O)([O-])OC.Cn1cc[n+](C)c1, the surface tension liquid-gas (x2 = 0) turned out to be 22.4 ± 0.3 mN/m.

Regarding `O` [water] + CCCCOP(=O)([O-])OCCCC.CCCCn1cc[n+](C)c1, the surface tension liquid-gas (x2 = 0) was found to be 71.9 ± 0.9 mN/m.

On to `O` [water] + CCCCn1cc[n+](C)c1.COP(=O)([O-])OC, for which the surface tension liquid-gas (x2 = 0) is on record as 71.9 ± 0.9 mN/m.

As for `O` [water] + CCCCn1cc[n+](CC)c1.CCOP(=O)([O-])OCC, the surface tension liquid-gas (x2 = 0) amounted to 71.9 ± 0.9 mN/m.

As for `O` [water] + CCOP(=O)([O-])OCC.CCn1cc[n+](C)c1, the surface tension liquid-gas (x2 = 0) was determined as 71.9 ± 0.9 mN/m.

As for `O` [water] + CCOP(=O)([O-])OCC.CCn1cc[n+](CC)c1, the surface tension liquid-gas (x2 = 0) is recorded as 71.9 ± 0.9 mN/m.

Consider `O` [water] + CCn1cc[n+](C)c1.COP(=O)([O-])OC, for which the surface tension liquid-gas (x2 = 0) is 71.9 ± 0.91 mN/m.

As to `O` [water] + COP(=O)([O-])OC.Cn1cc[n+](C)c1, the surface tension liquid-gas (x2 = 0) turned out to be 71.9 ± 0.9 mN/m.
